Data on 8 molecules can be found in PMC11289882, “Site-directed allostery perturbation to probe the negative regulation of hypoxia inducible factor-1α” (RSC Chemical Biology, 2024).

In assay [1] the target is p300/CBP. Set-up: method as in ref 1 (a number printed in a supplementary file, which may have a reference list of its own: not looked up in the article's list). To be noted: bio-layer interferometry; read-out: Direct binding to p300/CBP, KD; cited from earlier work.
In assay [2] the target is CBP bound Alexa594-HIF-1α. Set-up: method as in 3 sources, one per row (each row's own in cited_ref): ref 1 (a number printed in a supplementary file, which may have a reference list of its own: not looked up in the article's list) ||| ref 3 (a number printed in a supplementary file, which may have a reference list of its own: not looked up in the article's list) ||| ref 4 (a number printed in a supplementary file, which may have a reference list of its own: not looked up in the article's list). To be noted: FA titration against CBP bound Alexa594-HIF-1α; read-out: Competition with HIF-1α, KD, apparent; cited from earlier work.

The target of assay [3] is CBP bound Alexa594-CITED2. Set-up: method as in 3 sources, one per row (each row's own in cited_ref): ref 1 (a number printed in a supplementary file, which may have a reference list of its own: not looked up in the article's list) ||| ref 3 (a number printed in a supplementary file, which may have a reference list of its own: not looked up in the article's list) ||| ref 4 (a number printed in a supplementary file, which may have a reference list of its own: not looked up in the article's list). Conditions: FA titration against CBP bound Alexa594-CITED2; read-out: Direct binding to p300/CBP, KD, apparent; cited from earlier work.

Assay [4] deals with p300/CBP. Set-up: method as in ref 2 (a number printed in a supplementary file, which may have a reference list of its own: not looked up in the article's list). Conditions: ITC, 68% confidence intervals in brackets; read-out: Direct binding to p300/CBP, KD; cited from earlier work.
For the next assay, the target named is p300-HIF-1α complex. Further details: method as in ref 2 (a number printed in a supplementary file, which may have a reference list of its own: not looked up in the article's list). To be noted: ITC titration against p300-HIF-1α complex, 68% confidence intervals in brackets; read-out: Competition with HIF-1α, KD, apparent; cited from earlier work.
Another assay relates to p300–HIF-1α complex. The assay can be described thus: NMR competition, p300 with equimolar HIF-1α and CITED2 peptide (1H–15N HSQC). To be noted: 13C,15N-p300_330–424, 1.2 eq of each peptide, 10 mM Tris pH 6.9, 50 mM NaCl, 1 mM DTT, 298 K. It counts as binding, human. On the procedure:
To investigate the reversibility of the competition, samples containing p300 with equimolar amounts of HIF-1α and CITED2_218–256 or CITED2ΔN were prepared. […] (Table S1, ESI ^†). […]
a = KHIF + KCIT + [HIF]t + [CIT]t − [P]t (16)
b = KHIFKCIT + KHIF([CIT]t − [P]t) + KCIT([HIF]t − [P]t) (17)
KHIF = dissociation constant for Flu-HIF-1α, KCIT = dissociation constant for the competitor CITED2 or variant, [CIT]t = total concentration of the competitor CITED2 or variant, [P]t = total concentration of […]
Fitted parameters were: KHIF, KCIT, [HIF]t, [P]t, rP:HIF, rHIF from which KHIF, rP:HIF, rHIF, [HIF]t were kept constant during fitting. KHIF, rP:HIF, rHIF was determined in a separate experiment using HIF-1α776-826 as a competitor
(Fig. S3) [HIF]t was determined using fluorescence intensity measurements relative to a fluorescein calibration curve. [P]t was kept as a floating parameter to account for incompetent protein fraction.
Anisotropy values were normalized and represented as ligand-bound (Lb) values (Eq. 19.) L = (r − rHIF) ∗ [HIF] (19) […]
into three samples: to the first CITED2224-256 was added, to the second CITED2218-256 was added in 1.2 equivalent relative to p300 concentration, and to the third, same volume of buffer was added, and concentrated down to final sample volume. Concentrations were determined based on UV absorbance at 280 nm for p300 and CITED2 variants and at 205 nm for HIF-1α. […]

For assay [5], the target named is T1, p300_330–420 (TAZ1 domain) (Homo sapiens, UniProt Q09472).
T1 construct: from residues 330-420 (used for FA and ITC experiments); GST (N, cleaved yes); made in house; host or cells: E. coli BL21 pLysS (pGEX-4T-1)
The assay can be described thus: ITC direct titration to p300. It counts as binding. To be noted: 5 µM p300_330–420 in cell, 60 µM ligand in syringe, 35 °C, 40 mM Na-phosphate pH 7.5, 100 mM NaCl, 1 mM DTT, global fit with ternary intermediate model, 68% confidence intervals in brackets, read-out: Direct binding to p300, K d.

A further assay has as its target T2, p300–Flu-HIF-1α (Homo sapiens, UniProt Q09472).
T2 construct: from residues 330-420 (used for FA and ITC experiments); GST (N, cleaved yes); made in house; host or cells: p300: E. coli BL21 pLysS (pGEX-4T-1); tracer peptide: solid-phase synthesis
The assay can be described thus: Fluorescence anisotropy competition against p300–Flu-HIF-1α. Conditions: 50 nM p300_330–420, 25 nM Flu-HIF-1α786–826 tracer, 40 mM Na-phosphate, 100 mM NaCl, 1 mM DTT, 0.01% Triton-X, pH 7.4, 10 min at 35 °C; fixed KD = 64 nM for tracer; three repeats; read-out: Kd,app FA competition against p300–Flu-HIF-1α. It counts as binding.

Read-outs that look alike come from different tables or passages of the source. Non-standard residues stand in square brackets, D forms with d. Residues, ends and D or L forms follow the SMILES beside them. β3hE = N[C@@H](CCC(=O)O)CC(=O)O; β3hL = CC(C)C[C@H](N)CC(=O)O; β3hD = NC(CC(=O)O)CC(=O)O

T1 sequence (Q09472 330-420): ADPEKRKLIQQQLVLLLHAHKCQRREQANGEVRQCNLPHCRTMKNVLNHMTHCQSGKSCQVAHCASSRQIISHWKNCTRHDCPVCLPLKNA
T2 sequence (Q09472 330-420): as above

With “CITED2216-269: CITED2 residues 216–269, previously reported (NVIDTDFIDEEVLMSLVIEMGLDRIKELPELWLGQNEFDFMTDFVCKQQPSRVS; UniProt Q99967 216-269, looked up, fragment)”, the Kd on p300/CBP [1] is 9 ± 2 nM; in assay [2] it was 0.2 ± 0.1 nM; in assay [3], 10 ± 1 nM; at p300/CBP [4], 26 nM; at p300-HIF-1α complex, 1.1 nM.
Take HIF-1α786-826: HIF-1α residues 786–826: the Kd at p300/CBP [4] is 43 nM.
“CITED2_224–259: CITED2 residues 224–259, longer C terminus, without N-terminal tail (DEEVLMSLVIEMGLDRIKELPELWLGQNEFDFMTDF; UniProt Q99967 224-259, looked up, fragment)”: in the assay with p300–HIF-1α complex, the “Species observed in sample with equimolar HIF-1α and CITED2 peptide (reversibility of competition)” value is on record as “did not influence competition efficiency or unidirectionality”. The Kd is 9 nM on p300/CBP [4] and 12 nM on p300-HIF-1α complex.
Turning to “CITED2216-246: CITED2 residues 216–246, previously reported (NVIDTDFIDEEVLMSLVIEMGLDRIKELPEL; UniProt Q99967 216-246, looked up, fragment)”, the figures for the Kd in assay [2] and in assay [3] were 210 ± 20 nM and 5000 ± 1000 nM, respectively.
Turning to “CITED2216-248: CITED2 residues 216–248, previously reported (NVIDTDFIDEEVLMSLVIEMGLDRIKELPELWL; UniProt Q99967 216-248, looked up, fragment)”, the Kd at p300/CBP [4] is 303 nM; at p300-HIF-1α complex it was 47 nM.
In the case of `CC[C@H](C)[C@H](NC(C)=O)C(=O)N[C@@H](CC(=O)O)C(=O)N[C@H](C(=O)N[C@@H](CC(=O)O)C(=O)N[C@@H](Cc1ccccc1)C(=O)N[C@H](C(=O)N[C@@H](CC(=O)O)C(=O)N[C@@H](CCC(=O)O)C(=O)N[C@@H](CCC(=O)O)C(=O)N[C@H](C(=O)N[C@@H](CC(C)C)C(=O)N[C@@H](CCSC)C(=O)N[C@@H](CO)C(=O)N[C@@H](CC(C)C)C(=O)N[C@H](C(=O)N[C@H](C(=O)N[C@@H](CCC(=O)O)C(=O)N[C@@H](CCSC)C(=O)NCC(=O)N[C@@H](CC(C)C)C(=O)N[C@@H](CC(=O)O)CC(=O)N[C@@H](CCCNC(=N)N)C(=O)N[C@H](C(=O)N[C@@H](CCC(=O)O)CC(=O)N[C@@H](CC(C)C)C(=O)N1CCC[C@H]1C(=O)N[C@@H](CCC(=O)O)C(=O)N[C@@H](CC(C)C)C(=O)N[C@@H](Cc1c[nH]c2ccccc12)C(=O)N[C@H](CC(=O)NCC(=O)N[C@@H](CCC(N)=O)C(=O)N[C@@H](CC(N)=O)C(=O)N[C@@H](CCC(=O)O)C(=O)N[C@@H](Cc1ccccc1)C(=O)N[C@@H](CC(=O)O)C(=O)N[C@@H](Cc1ccccc1)C(=O)N[C@@H](CCSC)C(N)=O)CC(C)C)[C@@H](C)CC)[C@@H](C)CC)C(C)C)C(C)C)[C@@H](C)CC)[C@@H](C)O` [3b] (Ac-IDTDFIDEEVLMSLVIEMGL[β3hD]RI[β3hE]LPELW[β3hL]GQNEFDFM-NH2), the values for the Kd (in assay [5]; at p300–Flu-HIF-1α) were 98 nM and 112 ± 13 nM, respectively.
For `CC[C@H](C)[C@H](NC(C)=O)C(=O)N[C@@H](CC(=O)O)C(=O)N[C@H](C(=O)N[C@@H](CC(=O)O)C(=O)N[C@@H](Cc1ccccc1)C(=O)N[C@H](C(=O)N[C@@H](CC(=O)O)C(=O)N[C@@H](CCC(=O)O)C(=O)N[C@@H](CCC(=O)O)C(=O)N[C@H](C(=O)N[C@@H](CC(C)C)C(=O)N[C@@H](CCSC)C(=O)N[C@@H](CO)C(=O)N[C@@H](CC(C)C)C(=O)N[C@H](C(=O)N[C@H](C(=O)N[C@@H](CCC(=O)O)C(=O)N[C@@H](CCSC)C(=O)NCC(=O)N[C@@H](CC(C)C)C(=O)N[C@@H](CC(=O)O)CC(=O)N[C@H](C(=O)N[C@@H](CCC(=O)O)CC(=O)N[C@@H](CC(C)C)C(=O)N1CCC[C@H]1C(=O)N[C@@H](CCC(=O)O)C(=O)N[C@@H](CC(C)C)C(=O)N[C@@H](Cc1c[nH]c2ccccc12)C(=O)N[C@@H](CC(C)C)C(=O)NCC(=O)N[C@@H](CCC(N)=O)C(=O)N[C@@H](CC(N)=O)C(=O)N[C@@H](CCC(=O)O)C(=O)N[C@@H](Cc1ccccc1)C(=O)N[C@@H](CC(=O)O)C(=O)N[C@@H](Cc1ccccc1)C(=O)N[C@@H](CCSC)C(N)=O)[C@@H](C)CC)[C@@H](C)CC)C(C)C)C(C)C)[C@@H](C)CC)[C@@H](C)O` [3c] (Ac-IDTDFIDEEVLMSLVIEMGL[β3hD]I[β3hE]LPELWLGQNEFDFM-NH2), in that order: 29 nM and 76 ± 6 nM.
Taken in the same sequence, the figures for “Ac-DEEVLMSLVIEMGLDRIKELPELWLGQNEFDFM-NH2 [CITED2ΔN]” were 51 nM and 86 ± 5 nM.
